Assay results reported in US20070077653A1, “Modulation of cell intrinsic strain to control matrix synthesis, secretion, organization and remodeling” (MEDTRAIN TECHNOLOGIES, LLC, priority 2003, published 2007).

What was measured:
gel matrix = experiment: Gel matrix contraction in a culture system; type: cell-based
cell modulus = details: Wu, H. W. et al., Scanning, 1998; cited from earlier work
elastin = experiment: Gene expression in BATs by quantitative RT-PCR; type: cell-based, human
Method: (§1) Primary human tendon internal fibroblasts (HTIFs) were isolated from discarded human tendon tissue as described previously (Banes et al., J. Ortho Res., 6, 73-82, 1988). HTIFs from passage 2 to 4 were used in this study. BATs™ were fabricated at a cell density of 2 million cells/ml collagen gel suspension (Vitrogen). Cells were incubated at 37° C. for 24 h before addition of 100 pM IL-1β and inhibitors. BAT™ images were recorded with a scanner and automated imaging software, ScanFlex™ (Flexcell International Corp.). Medium was refreshed every 24 h. On day 5, BATs™ were collected, total RNA extracted with an RNeasy mini kit (QIAGen), cDNA synthesized with SuperScriptII (Invitrogen) and quantitative PCR carried out using a quantitative PCR kit from Ambion. The PCR products were separated on 2% agarose gels and the bands were quantitated in Photoshop. The elasticity of BATs™ was tested on day 5. BATs™ were subjected to a maximum stretch (20% elongation, 1 Hz for 1 h) and the BAT images were recorded for 24 h after stretch.

Collagen I = experiment: Gene expression in BATs by quantitative RT-PCR; type: cell-based, human; details: 100 pM IL-1β, day 5
Method: as §1

MMPs 1, 2, 3 = experiment: Gene expression in BATs by quantitative RT-PCR; type: cell-based, human; details: 100 pM IL-1β, day 5
Method: as §1

[1] = test system: human tendon internal fibroblasts (HTIFs); experiment: Young's modulus of HTIFs by micropipette aspiration; type: cell-based; details: 100 pM IL-1β, day 5
Method: (§2) Primary HTIFs were isolated after surgery from discarded human tendon tissue as described previously (Banes et al., J. Ortho Res., 6, 73-82, 1988). HTIFs from passage 2 to 4 were used in this study. HTIFs were allowed to attach and spread for 24 h before addition of 100 pM IL-1β. Medium was refreshed every 24 h. On day 5, cells were collected for cell modulus measurement and gene expression analysis. Young's modulus of HTIFs was measured by aspirating a cell into the bore of a calibrated micropipette with a calibrated vacuum source. The cell-aspiration process was videotaped for subsequent data analysis to calculate the pipette bore size, the steady state pressure required to aspirate a segment of a cell into the pipette bore and the time constant for aspiration. Cytoskeleton change was monitored by rhodamine-phalloidin staining. The expression levels of β-actin was determined by quantitative RT-PCR. Total RNA was extracted with an RNeasy mini kit (QIAGen), cDNA was synthesized with SuperScriptII (Invitrogen) and quantitative PCR was carried out using 18S rRNA as an internal control (Ambion). The PCR products were separated on 2% agarose gels and pixel intensity of the bands was quantitated in Photoshop.

[2] = test system: human tendon internal fibroblast (HTIF)-populated bioartificial tendons (BATs™); experiment: Elasticity of BATs by length recovery after maximum stretch; type: cell-based; details: 100 pM IL-1β
From the text: In order to find a better therapeutic method for tendon/ligament repair and/or replacement, several in vitro models for engineered tendon have been developed recently (Awad et al., J. Biomed. Mater Res., 51(2), 233-240, 2000). One of them is a BioArtificial Tendon (BAT™) model system utilizing tenocyte-populated molded collagen gels (Awad et al., J. Biomed. Mater Res., 51(2), 233-240, 2000). This 3D BAT™ system allows the testing of tenocyte responses to drugs, cytokines and mechanical loading but is too weak to replace conventional grafts materials. In an attempt to modulate the material properties of the cell-gel composite, the influence of IL-1β on the elasticity of human tendon internal fibroblast (HTIF)-populated bioartificial tendons (BATs™) was investigated. IL-1β has been reported to increase the expression of matrix metalloproteinases (MMPs) and elastin. It was hypothesized that IL-1β might increase the elasticity of BATs™ by up-regulating the expression of elastin and down-regulating matrix protein (Collagen I) expression. Gene expression was quantified with quantitative RT-PCR. The elasticity of BATs™ was determined by length recovery after stretch. The influence of IL-1β on the actin cytoskeleton and integrin attachment to matrix in BATs™ was tested +/− cytochalasin D or GRGDTP, respectively.
as §1, with “BATs™ were fabricated at a cell density of 2 million cells/ml collagen gel suspension (Vitrogen). Cells were incubated at 37° C. for 24 h before addition of 100 pM IL-1β and inhibitors.” left out, “Medium was refreshed every 24 h.” left out, “The elasticity of BATs™ was tested on day 5.” left out

β-actin [3] = experiment: β-actin expression by quantitative RT-PCR; type: cell-based, human; details: 100 pM IL-1β; for reduction of β-actin message: 24 h post addition
Method: as §2, with “On day 5, cells were collected for cell modulus measurement and gene expression analysis.” left out

[4] = test system: human tendon internal fibroblast (HTIF)-populated bioartificial tendons (BATs™); experiment: Contraction of HTIF-populated BATs (scanner imaging); type: cell-based; details: 100 pM IL-1β; 24 h post addition
Method: as §1

[5] = test system: human tendon internal fibroblast (HTIF) populated bioartificial tendons (BATs™); experiment: Material properties (modulus) of BATs; type: cell-based; details: IL-1β treated BATs
β-actin [6] = experiment: Cytoskeleton change by rhodamine-phalloidin staining; type: cell-based, human; details: 100 pM IL-1β

Compound: Nc1ncnc2c1ncn2[C@@H]1O[C@H](COP(=O)(O)OP(=O)(O)OP(=O)(O)O)[C@@H](O)[C@H]1O [ATP, adenosine triphosphate]
- gel matrix contraction (gel matrix): retard gel matrix contraction

Compound: C=C1[C@@H](C)[C@H]2[C@H](Cc3ccccc3)NC(=O)[C@]23[C@H](OC(C)=O)/C=C/[C@@](C)(O)C(=O)[C@@H](C)C/C=C/[C@H]3[C@@H]1O [cytochalasin D]
- cell modulus (cell modulus): decreased cell modulus by up to three fold

Compound: GRGDTP
- stimulation of elastin mRNA by IL-1β (elastin; 100 μg/ml GRGDTP with 100 pM IL-1β): reduced its stimulation by IL-1β
- elastin mRNA level (elastin; 100 μg/ml GRGDTP, without IL-1β): did not affect

Compound: interleukin-1beta [IL-1β]
- expression of elastin (elastin; 100 pM IL-1β, BATs, day 5): up-regulated
- expression of Collagen I (Collagen I): down-regulated
- expression of MMPs 1, 2, 3 (MMPs 1, 2, 3): up-regulated
- reduction of cell modulus ([1]; HTIFs from patient one): 62%
- reduction of cell modulus ([1]; HTIFs from patient two): 45%
- survival of maximum stretch ([2]; 20% elongation, 1 Hz for 1 h, day 5): survived the maximum stretch
- time for elongated BATs to recover to original length post stretch ([2]; after maximum stretch (20% elongation, 1 Hz, 1 h)): 8 h
- elasticity of BATs ([2]; tested on day 5): increased the elasticity
- reduction of β-actin message (β-actin [3]; 2D cultures): more than 50%
- reduction of β-actin message (β-actin [3]; 3D cultures (BATs)): more than 50%
- message level of β-actin (β-actin [3]; 3D cultures, day 3): returned to normal
- contraction of BATs [4]: reduced the contraction
- modulus of BATs [5]: reduced the modulus
- cells with disrupted cytoskeletal structure (β-actin [6]; 2D cultures): about 20%
- protein level of β-actin (β-actin [6]; 2D cultures, day 5): mostly recovered
- fluorescence intensity of rhodamine-phalloidin staining compared to control (β-actin [6]; 3D bioartificial tendons, day 5): much lower
- increase of intercellular space at the perpendicular direction of BATs (β-actin [6]; BATs, days 1 and 3): more than 100%
- protein level of β-actin (β-actin [6]; rhodamine-phalloidin staining): down regulated
